Experimental data reported in patent US8802597B2, “Herbicidal pyrimidines” (E I du Pont de Nemours and Company, priority 2003, dated 2014).

Legend:
Type in all cases: in vivo
[1] = system: barnyardgrass (Echinochloa crus-galli); experiment: Test A pre/postemergence
How it was run: (§1)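 Pre/post greenhouse screen; loam/sand soil; solvent + surfactant formulation; pre = directed soil spray at planting, post = 1–2 leaf plants, 2–10 cm; ~10 d; visual 0–100 rating vs untreated.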

[2] = system: crabgrass (Digitaria sanguinalis); experiment: Test A pre/postemergence
How it was run: as §1

[3] = system: giant foxtail (Setaria faberi); experiment: Test A pre/postemergence
How it was run: as §1

[4] = system: morningglory (Ipomoea spp.); experiment: Test A pre/postemergence
How it was run: as §1

[5] = system: redroot pigweed (Amaranthus retroflexus); experiment: Test A pre/postemergence
How it was run: as §1

[6] = system: velvetleaf (Abutilon theophrasti); experiment: Test A pre/postemergence
How it was run: as §1

[7] = system: barnyardgrass (Echinochloa crus-galli); experiment: Test E flooded paddy water application; conditions: Flood, 21 days, scale 0 to 100 (0 no effect, 100 complete control)
How it was run: (§2)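 Response scored visually on a 0–100 scale (100 = complete control) at 21 days against untreated pots. Treatment was into paddy water 3 cm deep over silt loam, with plants at the 2.0–2.5-leaf stage, grown under 16-h light at 29.5/26.7 °C day/night.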

[8] = system: bearded (brdd.) sprangletop (Leptochloa fusca ssp. fascicularis); experiment: Test E flooded paddy water application; conditions: Flood, 21 days, scale 0 to 100 (0 no effect, 100 complete control)
How it was run: as §2

[9] = system: ducksalad (Heteranthera limosa); experiment: Test E flooded paddy water application; conditions: Flood, 21 days, scale 0 to 100 (0 no effect, 100 complete control); for Plant response rating, Ducksalad: 16 g ai/ha
How it was run: as §2

[10] = system: early watergrass (Echinochloa oryzoides); experiment: Test E flooded paddy water application; conditions: Flood, 21 days, scale 0 to 100 (0 no effect, 100 complete control); for Plant response rating, Watergrass, Early: 16 g ai/ha
How it was run: as §2

[11] = system: junglerice (Echinochloa colona); experiment: Test E flooded paddy water application; conditions: Flood, 21 days, scale 0 to 100 (0 no effect, 100 complete control); for Plant response rating, Junglerice: 16 g ai/ha
How it was run: as §2

[12] = system: late watergrass (Echinochloa oryzicola); experiment: Test E flooded paddy water application; conditions: Flood, 21 days, scale 0 to 100 (0 no effect, 100 complete control); for Plant response rating, Watergrass, Late: 16 g ai/ha
How it was run: as §2

[13] = system: purple redstem (Ammannia coccinea); experiment: Test E flooded paddy water application; conditions: Flood, 21 days, scale 0 to 100 (0 no effect, 100 complete control); for Plant response rating, Redstem: 16 g ai/ha
How it was run: as §2

[14] = system: rice flatsedge (Cyperus iria); experiment: Test E flooded paddy water application; conditions: Flood, 21 days, scale 0 to 100 (0 no effect, 100 complete control); for Plant response rating, Flatsedge, Rice: 16 g ai/ha
How it was run: as §2

[15] = system: smallflower umbrella sedge (Cyperus difformis); experiment: Test E flooded paddy water application; conditions: Flood, 21 days, scale 0 to 100 (0 no effect, 100 complete control); for Plant response rating, Sedge, Umbrella: 16 g ai/ha
How it was run: as §2

[16] = system: transplanted rice seedlings (Oryza sativa cv. ‘Japonica-M202’); experiment: Test E flooded paddy water application; conditions: Flood, 21 days, scale 0 to 100 (0 no effect, 100 complete control); for Plant response rating, Rice, Transplanted: 16 g ai/ha
How it was run: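 Greenhouse pots of Tama silt loam with weeds and rice at 2.0–2.5-leaf stage, flooded to 3 cm; compounds applied directly into paddy water, depth maintained. Visual rating versus untreated controls after 21 days, 0 (no effect) to 100 (complete control); 29.5/26.7 °C, 16-h photoperiod.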

[17] = system: water seeded rice seedlings (Oryza sativa cv. ‘Japonica-M202’); experiment: Test E flooded paddy water application; conditions: Flood, 21 days, scale 0 to 100 (0 no effect, 100 complete control); for Plant response rating, Rice, Water Seeded: 16 g ai/ha
How it was run: as §2

[18] = Postemergence, 125 g ai/ha, 0 to 100 scale (0 no effect, 100 complete control)
[19] = Postemergence, 500 g ai/ha, 0 to 100 scale (0 no effect, 100 complete control)
[20] = Preemergence, 125 g ai/ha, 0 to 100 scale where 0 is no effect and 100 is complete control, approximately ten days
[21] = Preemergence, 500 g ai/ha, 0 to 100 scale where 0 is no effect and 100 is complete control, approximately ten days

CCOC(=O)c1nc(-c2ccc(C)c(C)c2)nc(N)c1Cl [Compound 71]
50: Plant response rating, Velvetleaf [6, 21]
70: Sedge, Umbrella plant response rating ([15]; 250 g ai/ha)
5: Plant response rating, Crabgrass [2, 19] | Plant response rating, Pigweed [5, 18]
15: Plant response rating, Pigweed [5, 21]
30: Plant response rating, Pigweed [5, 19] | Plant response rating, Velvetleaf [6, 20] | Redstem plant response rating ([13]; 250 g ai/ha) | Sedge, Umbrella plant response rating ([15]; 125 g ai/ha)
40: Plant response rating, Velvetleaf [6, 18]
0: Plant response rating, Barnyardgrass [1, 18] | Plant response rating, Barnyardgrass [1, 19] | Plant response rating, Barnyardgrass [1, 20] | Plant response rating, Barnyardgrass [1, 21] | Plant response rating, Crabgrass [2, 18] | Plant response rating, Crabgrass [2, 20] | Plant response rating, Crabgrass [2, 21] | Plant response rating, Foxtail, Giant [3, 18] | Plant response rating, Foxtail, Giant [3, 19] | Plant response rating, Foxtail, Giant [3, 20] | Plant response rating, Foxtail, Giant [3, 21] | Plant response rating, Morningglory [4, 18] | Plant response rating, Morningglory [4, 19] | Plant response rating, Morningglory [4, 20] | Plant response rating, Morningglory [4, 21] | Plant response rating, Pigweed [5, 20] | Barnyardgrass plant response rating ([7]; 32 g ai/ha) | Barnyardgrass plant response rating ([7]; 64 g ai/ha) | Barnyardgrass plant response rating ([7]; 125 g ai/ha) | Plant response rating, Barnyardgrass ([7]; 16 g ai/ha) | Sprangletop, Brdd. plant response rating ([8]; 32 g ai/ha) | Sprangletop, Brdd. plant response rating ([8]; 125 g ai/ha) | Watergrass, Early plant response rating ([10]; 32 g ai/ha) | Watergrass, Early plant response rating ([10]; 64 g ai/ha) | Watergrass, Early plant response rating ([10]; 125 g ai/ha) | Watergrass, Early plant response rating ([10]; 250 g ai/ha) | Plant response rating, Watergrass, Early [10] | Junglerice plant response rating ([11]; 32 g ai/ha) | Junglerice plant response rating ([11]; 64 g ai/ha) | Junglerice plant response rating ([11]; 125 g ai/ha) | Plant response rating, Junglerice [11] | Watergrass, Late plant response rating ([12]; 32 g ai/ha) | Watergrass, Late plant response rating ([12]; 64 g ai/ha) | Watergrass, Late plant response rating ([12]; 125 g ai/ha) | Watergrass, Late plant response rating ([12]; 250 g ai/ha) | Plant response rating, Watergrass, Late [12] | Redstem plant response rating ([13]; 32 g ai/ha) | Redstem plant response rating ([13]; 64 g ai/ha) | Redstem plant response rating ([13]; 125 g ai/ha) | Plant response rating, Redstem [13] | Flatsedge, Rice plant response rating ([14]; 32 g ai/ha) | Flatsedge, Rice plant response rating ([14]; 64 g ai/ha) | Flatsedge, Rice plant response rating ([14]; 125 g ai/ha) | Flatsedge, Rice plant response rating ([14]; 250 g ai/ha) | Plant response rating, Flatsedge, Rice [14] | Sedge, Umbrella plant response rating ([15]; 32 g ai/ha) | Sedge, Umbrella plant response rating ([15]; 64 g ai/ha) | Plant response rating, Sedge, Umbrella [15] | Rice, Transplanted plant response rating ([16]; 32 g ai/ha) | Rice, Transplanted plant response rating ([16]; 64 g ai/ha) | Rice, Transplanted plant response rating ([16]; 125 g ai/ha) | Rice, Transplanted plant response rating ([16]; 250 g ai/ha) | Plant response rating, Rice, Transplanted [16] | Rice, Water Seeded plant response rating ([17]; 32 g ai/ha) | Rice, Water Seeded plant response rating ([17]; 64 g ai/ha) | Rice, Water Seeded plant response rating ([17]; 125 g ai/ha) | Rice, Water Seeded plant response rating ([17]; 250 g ai/ha) | Plant response rating, Rice, Water Seeded [17]
60: Barnyardgrass plant response rating ([7]; 250 g ai/ha) | Sprangletop, Brdd. plant response rating ([8]; 250 g ai/ha)
100: Ducksalad plant response rating ([9]; 32 g ai/ha) | Ducksalad plant response rating ([9]; 64 g ai/ha) | Ducksalad plant response rating ([9]; 125 g ai/ha) | Ducksalad plant response rating ([9]; 250 g ai/ha) | Plant response rating, Ducksalad [9]
55: Plant response rating, Velvetleaf [6, 19]
45: Junglerice plant response rating ([11]; 250 g ai/ha)

CCOC(=O)c1nc(-c2ccc(Cl)cc2Cl)nc(N)c1Cl [Compound 72]
85: Plant response rating, Velvetleaf [6, 18] | Plant response rating, Velvetleaf [6, 19]
25: Redstem plant response rating ([13]; 32 g ai/ha) | Redstem plant response rating ([13]; 64 g ai/ha)
75: Plant response rating, Pigweed [5, 20] | Sedge, Umbrella plant response rating ([15]; 64 g ai/ha)
35: Redstem plant response rating ([13]; 125 g ai/ha)
30: Plant response rating, Crabgrass [2, 19] | Sedge, Umbrella plant response rating ([15]; 32 g ai/ha)
10: Plant response rating, Crabgrass [2, 18]
90: Plant response rating, Flatsedge, Rice [14] | Sedge, Umbrella plant response rating ([15]; 125 g ai/ha)
100: Plant response rating, Pigweed [5, 21] | Ducksalad plant response rating ([9]; 64 g ai/ha) | Ducksalad plant response rating ([9]; 125 g ai/ha) | Ducksalad plant response rating ([9]; 250 g ai/ha) | Redstem plant response rating ([13]; 250 g ai/ha) | Flatsedge, Rice plant response rating ([14]; 32 g ai/ha) | Flatsedge, Rice plant response rating ([14]; 64 g ai/ha) | Flatsedge, Rice plant response rating ([14]; 125 g ai/ha) | Flatsedge, Rice plant response rating ([14]; 250 g ai/ha) | Sedge, Umbrella plant response rating ([15]; 250 g ai/ha)
70: Plant response rating, Morningglory [4, 19]
80: Ducksalad plant response rating ([9]; 32 g ai/ha) | Plant response rating, Ducksalad [9]
40: Plant response rating, Velvetleaf [6, 20]
95: Plant response rating, Pigweed [5, 18] | Plant response rating, Pigweed [5, 19]
0: Plant response rating, Barnyardgrass [1, 18] | Plant response rating, Barnyardgrass [1, 19] | Plant response rating, Barnyardgrass [1, 20] | Plant response rating, Barnyardgrass [1, 21] | Plant response rating, Crabgrass [2, 20] | Plant response rating, Crabgrass [2, 21] | Plant response rating, Foxtail, Giant [3, 18] | Plant response rating, Foxtail, Giant [3, 19] | Plant response rating, Foxtail, Giant [3, 20] | Plant response rating, Foxtail, Giant [3, 21] | Plant response rating, Morningglory [4, 20] | Plant response rating, Morningglory [4, 21] | Barnyardgrass plant response rating ([7]; 32 g ai/ha) | Barnyardgrass plant response rating ([7]; 125 g ai/ha) | Barnyardgrass plant response rating ([7]; 250 g ai/ha) | Sprangletop, Brdd. plant response rating ([8]; 32 g ai/ha) | Sprangletop, Brdd. plant response rating ([8]; 64 g ai/ha) | Sprangletop, Brdd. plant response rating ([8]; 125 g ai/ha) | Sprangletop, Brdd. plant response rating ([8]; 250 g ai/ha) | Plant response rating, Sprangletop, Brdd. ([8]; 16 g ai/ha) | Watergrass, Early plant response rating ([10]; 32 g ai/ha) | Watergrass, Early plant response rating ([10]; 64 g ai/ha) | Watergrass, Early plant response rating ([10]; 125 g ai/ha) | Watergrass, Early plant response rating ([10]; 250 g ai/ha) | Plant response rating, Watergrass, Early [10] | Junglerice plant response rating ([11]; 32 g ai/ha) | Junglerice plant response rating ([11]; 64 g ai/ha) | Junglerice plant response rating ([11]; 125 g ai/ha) | Junglerice plant response rating ([11]; 250 g ai/ha) | Plant response rating, Junglerice [11] | Watergrass, Late plant response rating ([12]; 32 g ai/ha) | Watergrass, Late plant response rating ([12]; 64 g ai/ha) | Watergrass, Late plant response rating ([12]; 125 g ai/ha) | Watergrass, Late plant response rating ([12]; 250 g ai/ha) | Plant response rating, Watergrass, Late [12] | Plant response rating, Redstem [13] | Plant response rating, Sedge, Umbrella [15] | Rice, Transplanted plant response rating ([16]; 32 g ai/ha) | Rice, Transplanted plant response rating ([16]; 64 g ai/ha) | Rice, Transplanted plant response rating ([16]; 125 g ai/ha) | Rice, Transplanted plant response rating ([16]; 250 g ai/ha) | Plant response rating, Rice, Transplanted [16] | Rice, Water Seeded plant response rating ([17]; 32 g ai/ha) | Rice, Water Seeded plant response rating ([17]; 64 g ai/ha) | Rice, Water Seeded plant response rating ([17]; 125 g ai/ha) | Rice, Water Seeded plant response rating ([17]; 250 g ai/ha) | Plant response rating, Rice, Water Seeded [17]
55: Plant response rating, Morningglory [4, 18] | Plant response rating, Velvetleaf [6, 21]
